Source: patent US20230181611A1, “REELIN/VEGF-C PRODUCTION/ACTIVATION PROMOTER AND SKIN EXTERNAL COMPOSITION USING THE SAME” (AMOREPACIFIC CORPORATION, priority 2021, published 2023)

How the values were obtained:
[1] = system: Human dermal lymphatic endothelial cells (HDLEC); experiment: Cytotoxicity analysis (WST-8 cell viability); assay type: cell-based; conditions: 0 to 200 ppm (μg/ml), 24 hours and 72 hours, FIG. 1
Description: Human dermal lymphatic endothelial cells (HDLEC, PromoCell, Germany) were newly cultured in 96 well dishes for one day and then treated with a compound represented by Chemical Formula E-1 (Biogenics Company) at each concentration of 0 ppm (μg/ml) to 200 ppm (μg/ml). The cells were cultured for 24 hours and 72 hours, and then measured with respect to absorbance at 450 nm by using a QuantiMax WST-8 Cell viability assay kit to check cell viability, and the results are shown in FIG. 1.

reelin = experiment: Reelin cytokine analysis (ELISA); assay type: cell-based, human; conditions: HDLEC, 10 ppm, 48 hours, DMSO control = 100%, FIG. 2
Description: After culturing human dermal lymphatic endothelial cells in 6 well plates for 24 hours, while the cells treated with DMSO were used as a control (reference, 100%), the cells were treated with the compound represented by Chemical Formula E-1 at a concentration of 10 ppm and cultured for 48 hours and then measured with respect to production and activity of reelin through a reelin cytokine analysis by using human ELISA Kit (Mybiosource, U.S.A.) according to a manual, and the results are shown in FIG. 2.

VEGF-C = VEGF-C cytokine analysis (ELISA); assay type: cell-based, human; conditions: HDLEC, 1 ppm and 10 ppm, 48 hours, DMSO control = 100%, FIG. 3
Description: After culturing human dermal lymphatic endothelial cells in 6 well plates for 24 hours, while the cells treated with DMSO as a control (reference, 100%), the cells were treated with the compound represented by Chemical Formula E-1 at each concentration of 1 ppm and 10 ppm and cultured for 48 hours and then measured with respect to production and activity of VEGF-C through a VEGF-C cytokine analysis by using a VEGFC human ELISA Kit (ThermoFisher, U.S.A.) according to a manual, and the results are shown in FIG. 3.

## CC1(C)[C@@H](O[C@H]2OC(C(=O)O)[C@@H](O)C(O)C2O[C@@H]2OC(C(=O)O)[C@@H](O)C(O)C2O)CC[C@]2(C)[C@H]3C(=O)C=C4[C@@H]5C[C@@](C)(C(=O)O)CC[C@]5(C)CC[C@@]4(C)[C@]3(C)CC[C@@H]12 (stereo partly drawn) [Chemical Formula E-1]
[1]
  cytotoxicity (cell viability): no cytotoxicity
reelin
  production and activity of reelin compared with the control: further improve production and activity of reelin
VEGF-C
  production and activity of VEGF-C compared with the control: further improve production and activity of VEGF-C
